Test results published in PubChem BioAssay (NCI).
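Exposure lasted 48 hours, with cells grown in 96-well plates and compounds tested at five concentrations. GI50: concentration for 50% inhibition of growth. TGI denotes the concentration required for complete inhibition of growth.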

Legend:
Assay in all cases: growth of human tumour cells (NCI), 48 h
[1] = test system: SK-MEL-2 melanoma
[2] = test system: SK-OV-3 ovarian
[3] = test system: HOP-92 NSCLC
[4] = test system: NCI-H23 lung
[5] = test system: SW-620 colon
[6] = test system: 786-0 renal
[7] = test system: SF-268 CNS
[8] = test system: MCF7 breast
[9] = test system: T-47D breast
[10] = test system: HS 578T breast

CN(C(=O)c1ccco1)C(=S)N1CCN(c2ccccc2)CC1
TGI [1]: > 100 µM
TGI [2]: > 100 µM
TGI [3]: > 100 µM
TGI [4]: > 100 µM
TGI [5]: > 100 µM
TGI [6]: > 100 µM
TGI [7]: > 100 µM

O=C(O)c1nc(-c2ccccc2)[nH]c1C(=O)O
TGI [1]: 21.3 µM
TGI [8]: 15.7 µM
TGI [9]: 33.1 µM
TGI [2]: 32.4 µM
TGI [3]: 32.4 µM
TGI [4]: 31.8 µM
TGI [5]: 6.78 µM
TGI [10]: > 61.2 µM
TGI [6]: 22.5 µM
TGI [7]: 34.8 µM

C[C@@H]1CC[C@H]2C(C(O)CCCCC(O)C3=C(C(F)(F)F)O[C@@H]4O[C@@]5(C)CC[C@H]6[C@H](C)CC[C@@H]3[C@@]46OO5)=C(C(F)(F)F)O[C@@H]3O[C@@]4(C)CC[C@@H]1[C@]32OO4 (stereo partly drawn)
GI50 [1]: > 100 µM
TGI [1]: > 100 µM
GI50 [8]: 5.01 µM
TGI [8]: > 100 µM
GI50 [9]: 2.52 µM
TGI [9]: 9.02 µM
GI50 [2]: > 100 µM
TGI [2]: > 100 µM
GI50 [3]: 11.2 µM
TGI [3]: > 100 µM
GI50 [5]: 5.64 µM
TGI [5]: > 100 µM
GI50 [10]: 37.8 µM
TGI [10]: > 100 µM
GI50 [7]: 19.5 µM
TGI [7]: > 100 µM

Cc1c(NC(=O)CSC(=S)N2CCN(Cc3ccccc3)CC2)c(=O)n(-c2ccccc2)n1C
TGI [1]: > 100 µM
TGI [8]: > 100 µM
TGI [9]: > 100 µM
TGI [2]: > 100 µM
TGI [4]: > 100 µM
TGI [5]: > 100 µM
TGI [10]: > 100 µM
TGI [6]: > 100 µM
TGI [7]: > 100 µM

CC(C)C(OC(=O)c1ccc(NCc2cc(O)ccc2O)cc1)C(C)C
TGI [1]: 6.68 µM
TGI [8]: 16.4 µM
TGI [9]: 3.4 µM
TGI [3]: 1.36 µM
TGI [4]: 6.56 µM
TGI [5]: 7.95 µM
TGI [10]: 8.09 µM
TGI [6]: 2.42 µM
TGI [7]: 5.3 µM

COC(=O)C(Cc1ccccc1)NP(=O)(O)OCC1OC(n2cc(F)c(=O)[nH]c2=O)CC1O (stereo not drawn)
TGI [1]: > 100 µM
TGI [8]: > 100 µM
TGI [9]: > 100 µM
TGI [2]: > 100 µM
TGI [3]: > 55.2 µM
TGI [4]: > 100 µM
TGI [5]: > 100 µM
TGI [10]: > 100 µM
TGI [6]: > 100 µM
TGI [7]: > 100 µM

COc1ccc2nc3cc([N+](=O)[O-])ccc3c(Nc3ccc(S(=O)(=O)NC(C)=O)cc3)c2c1
TGI [1]: > 100 µM
TGI [8]: > 100 µM
TGI [9]: > 100 µM
TGI [2]: > 100 µM
TGI [3]: > 100 µM
TGI [4]: > 100 µM
TGI [5]: > 100 µM
TGI [10]: > 100 µM
TGI [6]: > 100 µM
TGI [7]: > 100 µM

CCOC(=O)c1nc2ccc(C(F)(F)F)cc2nc1Oc1cc(OC)cc(OC)c1
TGI [1]: > 100 µM
TGI [8]: > 100 µM
TGI [9]: > 100 µM
TGI [2]: > 100 µM
TGI [3]: > 100 µM
TGI [5]: > 100 µM
TGI [10]: 64.2 µM
TGI [6]: > 100 µM
TGI [7]: > 100 µM

Nc1ncnc2c1nnn2C1CCC(CP(=O)(O)O)C1 (stereo not drawn)
TGI [1]: > 100 µM
TGI [8]: > 100 µM
TGI [9]: > 100 µM
TGI [2]: > 100 µM
TGI [3]: > 100 µM
TGI [4]: > 100 µM
TGI [5]: > 100 µM
TGI [6]: > 100 µM
TGI [7]: > 100 µM

N#Cc1ccccc1-c1nc2c3c(c(N)ccc3n1)C(=O)c1ccccc1-2
TGI [1]: > 100 µM
TGI [8]: > 100 µM
TGI [9]: > 100 µM
TGI [2]: > 100 µM
TGI [3]: > 100 µM
TGI [4]: > 100 µM
TGI [5]: > 100 µM
TGI [10]: > 100 µM
TGI [6]: > 100 µM
TGI [7]: > 100 µM

COC1OC2COC1(OC)C1OC(C)(C)OC21 (stereo not drawn)
TGI [1]: > 100 µM
TGI [8]: > 100 µM
TGI [9]: > 100 µM
TGI [2]: > 100 µM
TGI [4]: > 100 µM
TGI [5]: > 100 µM
TGI [10]: > 100 µM
TGI [6]: > 100 µM
TGI [7]: > 100 µM

CN(C)c1nc2oc(-c3ccccc3)c(-c3ccccc3)c2c2nnnn12
TGI [8]: > 100 µM
TGI [9]: > 100 µM
TGI [2]: > 100 µM
TGI [3]: > 100 µM
TGI [4]: > 100 µM
TGI [5]: > 100 µM
TGI [10]: > 100 µM
TGI [6]: > 100 µM
TGI [7]: > 100 µM

O=c1c2cc(I)ccc2nc(-c2cccs2)n1-c1ccc(O)cc1
TGI [1]: 29.9 µM
TGI [8]: 32.8 µM
TGI [9]: 10.7 µM
TGI [3]: 26.9 µM
TGI [4]: 36.7 µM
TGI [5]: 69.6 µM
TGI [6]: 29.8 µM
TGI [7]: 32.8 µM

COc1ccc(C(=O)/C=C/c2c(Cl)c3c(c(OC)c2Cl)OCC(=O)N3)cc1
GI50 [1]: 2.19 µM
TGI [1]: 5.94 µM
GI50 [8]: 2.32 µM
TGI [8]: > 100 µM
GI50 [2]: 3.59 µM
TGI [2]: 27.1 µM
GI50 [3]: 2.44 µM
TGI [3]: 8.88 µM
GI50 [4]: 2.23 µM
TGI [4]: 4.85 µM
GI50 [5]: 1.81 µM
TGI [5]: 3.66 µM
GI50 [10]: 4.43 µM
TGI [10]: 50.4 µM

CC(=O)Nc1ccc(OC2=CCN(C)CC2)cc1
TGI [1]: > 100 µM
TGI [8]: > 100 µM
TGI [9]: > 100 µM
TGI [2]: > 100 µM
TGI [4]: > 100 µM
TGI [5]: > 100 µM
TGI [10]: > 100 µM
TGI [6]: > 100 µM
TGI [7]: > 100 µM

O=c1ccn(CC2(CO)CC(Cc3ccccc3)C2)c(=O)[nH]1 (stereo not drawn)
TGI [1]: > 100 µM
TGI [8]: > 100 µM
TGI [9]: > 100 µM
TGI [2]: > 100 µM
TGI [4]: > 100 µM
TGI [5]: > 100 µM
TGI [10]: > 100 µM
TGI [6]: > 100 µM
TGI [7]: > 100 µM

C/C(Nc1ccc(F)cc1)=C1/CCOC1=O
TGI [9]: > 100 µM
TGI [3]: > 100 µM
TGI [4]: > 100 µM
TGI [5]: > 100 µM
TGI [10]: > 100 µM
TGI [6]: > 100 µM
TGI [7]: > 100 µM

C(CCCCc1nnc(N2CCCCC2)o1)CCCc1nnc(N2CCCCC2)o1
TGI [1]: > 100 µM
TGI [8]: > 100 µM
TGI [2]: > 100 µM
TGI [3]: > 100 µM
TGI [4]: > 100 µM
TGI [5]: > 100 µM
TGI [6]: > 100 µM
TGI [7]: > 100 µM

O=C(O)c1ccn(-c2cccc(-n3ccc(C(=O)O)n3)n2)n1
TGI [1]: > 100 µM
TGI [8]: > 100 µM
TGI [2]: > 100 µM
TGI [4]: > 100 µM
TGI [5]: > 100 µM
TGI [10]: > 100 µM
TGI [6]: > 100 µM
TGI [7]: > 100 µM

CC1(O)CC(=O)c2c(cc3ccc(-c4c5c(c(O)c6c(O)cccc46)C(=O)CC(C)(O)C5)c(O)c3c2O)C1 (stereo not drawn)
TGI [1]: 0.897 µM
TGI [8]: 1.7 µM
TGI [2]: > 100 µM
TGI [3]: 0.815 µM
TGI [4]: 1.35 µM
TGI [5]: 18.9 µM
TGI [10]: 4.4 µM
TGI [6]: 7.64 µM
TGI [7]: 1.81 µM

Cc1ccc2c(c1C)C(=O)/C(=C/c1ccccc1C(=O)O)C2
TGI [1]: > 100 µM
TGI [8]: > 100 µM
TGI [9]: > 100 µM
TGI [3]: > 100 µM
TGI [4]: > 100 µM
TGI [5]: > 100 µM
TGI [10]: > 100 µM
TGI [6]: > 100 µM
TGI [7]: > 100 µM
